# Measured values as given in ChEMBL document CHEMBL5331114, “Discovery of Pyxinol Amide Derivatives Bearing Amino Acid Residues as Nonsubstrate Allosteric Inhibitors of P-Glycoprotein-Mediated Multidrug Resistance” (J Med Chem, 2023).
# The source made the active and inactive calls. No cut-off for these calls is given here.
# How the values were obtained:
# [1] = Induction of Ptx-mediated cell cycle arrest in human KBV cells assessed as accumulation of cells at G2-M phase at 5 uM incubated for 24 hrs in presence of paclitaxel by flow cytometry analysis (Rvb =25.34 +/- 0.92%); assay type: functional
# [2] = Induction of cell cycle arrest in human KBV cells assessed as accumulation of cells at G1-G0 phase at 5 uM incubated for 24 hrs by flow cytometry analysis (reference value: 62.34 +/- 0.24%); assay type: functional
# P-gp (ABCB1) ATPase = P-gp (ABCB1) ATPase (Homo sapiens, UniProt P08183); test: Negative allosteric modulator activity at human P-gp ATP synthase hydrolytic activity assessed as inhibition of Vrp-stimulated Pgp-ATPase activity incubated for 60 mins in presence of ATP by Glo-luminescence based microplate reader assay relative to DMSO; conditions: probe Vrp (stimulator of the ATPase activity)
# P-gp (ABCB1) ATPase, sequence (P08183 whole entry): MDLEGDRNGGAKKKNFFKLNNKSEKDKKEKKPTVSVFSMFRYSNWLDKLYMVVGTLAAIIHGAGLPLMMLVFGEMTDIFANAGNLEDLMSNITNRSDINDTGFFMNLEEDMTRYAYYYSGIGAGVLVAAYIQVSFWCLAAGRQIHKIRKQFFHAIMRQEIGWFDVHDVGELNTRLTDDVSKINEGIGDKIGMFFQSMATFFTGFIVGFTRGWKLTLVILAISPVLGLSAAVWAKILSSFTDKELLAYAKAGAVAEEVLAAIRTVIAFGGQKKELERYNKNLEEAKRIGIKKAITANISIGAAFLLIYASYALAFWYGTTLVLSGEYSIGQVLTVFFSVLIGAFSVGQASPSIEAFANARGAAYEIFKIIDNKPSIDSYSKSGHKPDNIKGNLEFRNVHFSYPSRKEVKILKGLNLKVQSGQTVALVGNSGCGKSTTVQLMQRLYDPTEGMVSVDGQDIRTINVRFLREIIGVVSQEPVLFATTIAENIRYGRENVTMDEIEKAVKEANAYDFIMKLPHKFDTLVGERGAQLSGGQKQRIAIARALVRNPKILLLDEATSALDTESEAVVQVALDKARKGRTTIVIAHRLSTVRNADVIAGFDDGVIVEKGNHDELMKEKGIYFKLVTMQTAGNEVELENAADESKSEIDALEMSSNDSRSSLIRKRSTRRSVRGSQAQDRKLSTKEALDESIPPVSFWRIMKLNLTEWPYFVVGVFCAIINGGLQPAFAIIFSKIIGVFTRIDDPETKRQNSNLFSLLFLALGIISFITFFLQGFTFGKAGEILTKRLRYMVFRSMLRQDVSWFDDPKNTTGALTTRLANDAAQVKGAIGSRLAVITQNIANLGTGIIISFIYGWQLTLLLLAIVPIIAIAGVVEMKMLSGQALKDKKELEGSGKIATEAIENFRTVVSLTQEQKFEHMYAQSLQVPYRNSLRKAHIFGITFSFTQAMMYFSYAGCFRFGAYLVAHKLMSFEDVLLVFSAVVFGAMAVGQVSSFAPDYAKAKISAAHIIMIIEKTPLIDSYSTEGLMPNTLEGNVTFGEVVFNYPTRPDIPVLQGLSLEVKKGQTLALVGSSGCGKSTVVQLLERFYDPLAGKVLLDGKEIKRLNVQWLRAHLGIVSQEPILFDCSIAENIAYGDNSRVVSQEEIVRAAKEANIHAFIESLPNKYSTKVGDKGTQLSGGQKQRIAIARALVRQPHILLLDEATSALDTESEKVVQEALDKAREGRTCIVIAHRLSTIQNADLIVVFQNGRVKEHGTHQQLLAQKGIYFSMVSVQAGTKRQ
# [3] = Induction of cell cycle arrest in human KBV cells assessed as accumulation of cells at S phase at 5 uM incubated for 24 hrs by flow cytometry analysis (reference value: 12.42 +/- 0.41%); assay type: functional
# [4] = Reversal of multidrug resistance in human KBV Cells assessed as reversal fold of paclitaxel IC50 at 10 uM incubated for 72 hrs in presence of paclitaxel by MTT assay; assay type: functional
# KBV = test: Chemo-sensitizing activity against Ptx-resistance human KBV cells xenografted in BALB/c mouse assessed as inhibition of tumor growth at 20 mg/kg,ip measured after 23 days; assay type: functional, organism-based; conditions: time 23.0 day
# [5] = Induction of cell cycle arrest in human KBV cells assessed as accumulation of cells at Sub-G1 phase at 10 uM incubated for 24 hrs by flow cytometry analysis (reference value: 1.24 +/- 0.14%); assay type: functional
# [6] = target: ATP-dependent translocase ABCB1 (Homo sapiens, UniProt P08183); test: Negative allosteric modulator activity at P-glycoprotein mediated Rhodamine-123 efflux in human KBV cells assessed as increase in intracellular Rhodamine-123 accumulation incubated for 2 hrs by flow cytometry analysis; assay type: cell-based
# ATP-dependent translocase ABCB1, sequence (P08183 whole entry): as above
# [7] = Toxicity against BALB/c mouse xenografted with Ptx-resistance human KBV cells at 20 mg/kg,ip measured after 23 days; assay type: organism-based; conditions: in vivo, 552 h, time 23 day
smiles,measurement,setting,value
CC(C)(O)[C@H]1CC[C@@](C)([C@H]2CC[C@]3(C)[C@@H]2[C@H](O)C[C@@H]2[C@@]4(C)CC[C@H](NC(=O)[C@@H]5CCCN5)C(C)(C)[C@@H]4CC[C@]23C)O1,Activity,[1],31.28%
same,Activity,[2],59.58%
same,inhibition at 1 h,P-gp (ABCB1) ATPase,40%
same,Activity,[3],13.38%
same,fold change (FC),[4],67
same,Activity,KBV,inactive
same,Activity,[5],1%
same,Activity,[6],Dose-Dependent Effect
same,Activity,[7],Non-Toxic
